The supplement of paper PMC11208160

Assay: recombinant barcode read abundance after kanamycin selection (control-corrected) (log10(CPM+1)); higher = more efficient recombination; sequences stand for … in AGTGCAGAGAAAATCGGCCAGTTTTCTCTGCCTGCAGTCCGCATGCCGT…AGATTTATGCAGCGGACTGCCTTTCTCCCAAAGTGATAAACCGGACAGTATCATGGACCGGTTTTCCCGGTAATCCGTATTTGCAAGGTTGGTTTCACT; site = the 11-nt target
In short: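 Two replicates per condition were plated: chloramphenicol/ampicillin LB agar for the control, and chloramphenicol/ampicillin/kanamycin with 0.1 mM IPTG for selection. The pooled E. coli screen behind them paired targets with IS621 bridge RNA target-binding loops. Recombination efficiency is expressed from averaged, control-corrected barcode counts per million at recombinant junctions, as log10(CPM+1).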
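Note: IS621 recombinase and bridge RNA in Escherichia coli cells.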

Sequence	recombinant barcode read abundance (log10)
GAGCTGACTTGGGTTCTAACCTGTTGCCT (site GAGCCGACTAG)	0.488
GAGCTGACTTGGGTTCTAACCTGTTGCCT (site GAGCGGACTAG)	0.0812
GAGCTGACTTGGGTTCTAACCTGTTGCCT (site GAGCTGACTAG)	1.49
GAGCTTGCTTGGGTTCTAACCTGTTGCGA (site GAGCTTGCTTC)	0.949
GAGCTTGCTTGGGTTCTAACCTGTTGCGA (site TGCGGGTCTAG)	0.122
GAGGACTCTTGGGTTCTAACCTGTTGCCT (site GAGGACTCTAG)	3
GAGGACTCTTGGGTTCTAACCTGTTGCCT (site GAGGACTCTCG)	0.0247
GAGGACTCTTGGGTTCTAACCTGTTGCCT (site GAGGACTCTGG)	1.29
GAGGACTCTTGGGTTCTAACCTGTTGCCT (site GAGGACTCTTG)	0.0974
GAGGCTCCTTGGGTTCTAACCTGTTGCGT (site GAAGCTCCTAC)	1.54
GAGGCTCCTTGGGTTCTAACCTGTTGCGT (site GAGGCTCCTAC)	2.97
GAGGGCCCTTGGGTTCTAACCTGTTGCAG (site GAGGGCCCTCA)	2.07
GAGGGCCCTTGGGTTCTAACCTGTTGCAG (site GAGGGCCCTCC)	0.926
GAGGGCCCTTGGGTTCTAACCTGTTGCAG (site GAGGGCCCTCG)	1.4
GAGGGCCCTTGGGTTCTAACCTGTTGCAG (site GAGGGCCCTCT)	2.88
GAGGGCCCTTGGGTTCTAACCTGTTGCCT (site AAGGGCCCTAG)	1.38
GAGGGCCCTTGGGTTCTAACCTGTTGCCT (site CAGGGCCCTAG)	1.04
GAGGGCCCTTGGGTTCTAACCTGTTGCCT (site GAGGGCCCTAG)	2.41
GAGGGCCCTTGGGTTCTAACCTGTTGCCT (site TAGGGCCCTAG)	1.04
GAGGGTCCTTGGGTTCTAACCTGTTGCCT (site GAGGGTCCTAA)	0.451
GAGGGTCCTTGGGTTCTAACCTGTTGCCT (site GAGGGTCCTAC)	0.133
GAGGGTCCTTGGGTTCTAACCTGTTGCCT (site GAGGGTCCTAG)	2.56
GAGGGTCCTTGGGTTCTAACCTGTTGCCT (site GAGGGTCCTAT)	0.457
GAGGGTCCTTGGGTTCTAACCTGTTGCTT (site GAGGGTCCTAA)	2
GAGGGTCCTTGGGTTCTAACCTGTTGCTT (site GAGGGTCCTAC)	0.598
GAGGGTCCTTGGGTTCTAACCTGTTGCTT (site GAGGGTCCTAG)	1.72

Sequence	recombinant barcode read abundance (log10)
GAGGGTCCTTGGGTTCTAACCTGTTGCTT (site GAGGGTCCTAT)	1.83
GAGGGTGCTTGGGTTCTAACCTGTTGCCT (site GAGGGTGCTAG)	1.89
GAGGGTGCTTGGGTTCTAACCTGTTGCCT (site GAGGGTTCTAT)	0.121
GAGGTATCTTGGGTTCTAACCTGTTGCCA (site GAGGTATCTAC)	0.038
GAGGTATCTTGGGTTCTAACCTGTTGCCA (site GAGGTATCTTG)	1.12
GAGGTATCTTGGGTTCTAACCTGTTGCTA (site GAGGTATCTAA)	0.201
GAGGTATCTTGGGTTCTAACCTGTTGCTA (site GAGGTATCTTA)	0.345
GAGGTGCCTTGGGTTCTAACCTGTTGCTG (site CTAACTACTAC)	0.0482
GAGGTGCCTTGGGTTCTAACCTGTTGCTG (site GAGGTGCCTCA)	2
GAGTCGCCTTGGGTTCTAACCTGTTGCCT (site GAGTCGCCTAG)	0.263
GAGTCGCCTTGGGTTCTAACCTGTTGCCT (site GAGTCGTCTAG)	0.118
GAGTCGCCTTGGGTTCTAACCTGTTGCGG (site GAGTAGCCTCC)	0.0862
GAGTCGCCTTGGGTTCTAACCTGTTGCGG (site GAGTCGCCTCC)	1.22
GAGTCGCCTTGGGTTCTAACCTGTTGCGG (site GAGTGGCCTCC)	0.188
GAGTCGCCTTGGGTTCTAACCTGTTGCGG (site GAGTTGCCTCC)	0.0886
GAGTCGGCTTGGGTTCTAACCTGTTGCTT (site GAGACGGCTAA)	0.23
GAGTCGGCTTGGGTTCTAACCTGTTGCTT (site GAGCCGGCTAA)	0
GAGTCGGCTTGGGTTCTAACCTGTTGCTT (site GAGGCGGCTAA)	0.0495
GAGTCGGCTTGGGTTCTAACCTGTTGCTT (site GAGTCGGCTAA)	0.778
GAGTCTACTTGGGTTCTAACCTGTTGCAG (site GAGTCTACTCG)	0.339
GAGTCTACTTGGGTTCTAACCTGTTGCAG (site GAGTCTACTCT)	0.494
GAGTCTACTTGGGTTCTAACCTGTTGCTT (site GAATCTACTAA)	0.0356
GAGTCTACTTGGGTTCTAACCTGTTGCTT (site GACTCTACTAA)	0.813
GAGTCTACTTGGGTTCTAACCTGTTGCTT (site GAGTCTACTAA)	0
GAGTCTACTTGGGTTCTAACCTGTTGCTT (site GATTCTACTAA)	0.0603
GAGTCTTCTTGGGTTCTAACCTGTTGCCA (site CTACAGGCTGT)	0.281

Sequence	recombinant barcode read abundance (log10)
GAGTCTTCTTGGGTTCTAACCTGTTGCCA (site GAGTCTTCTTG)	0.147
GAGTCTTCTTGGGTTCTAACCTGTTGCTA (site GAGTACTCTTA)	0.0434
GAGTCTTCTTGGGTTCTAACCTGTTGCTA (site GAGTCTTCTTA)	0.0462
GAGTGCTCTTGGGTTCTAACCTGTTGCAG (site GAGCGCTCTCT)	0.676
GAGTGCTCTTGGGTTCTAACCTGTTGCAG (site GAGTGCTCTCT)	1.26
GAGTGGACTTGGGTTCTAACCTGTTGCGT (site GACCGGACTAC)	0.349
GAGTGGACTTGGGTTCTAACCTGTTGCGT (site GAGTGGACTAC)	2.7
GAGTGTCCTTGGGTTCTAACCTGTTGCGA (site GAGTGTCCTTC)	1.87
GAGTGTCCTTGGGTTCTAACCTGTTGCGA (site GTGTCTCCTTC)	0.0874
GAGTTCACTTGGGTTCTAACCTGTTGCAG (site AGTCGTTCTAG)	0.141
GAGTTCACTTGGGTTCTAACCTGTTGCAG (site GAGTTCACTCT)	1.79
GAGTTGCCTTGGGTTCTAACCTGTTGCCT (site GAGTTGCCTAG)	1.05
GAGTTGCCTTGGGTTCTAACCTGTTGCCT (site GCGTTGCCTAG)	0.107
GAGTTGCCTTGGGTTCTAACCTGTTGCCT (site GGGTTGCCTAG)	0.0448
GAGTTGCCTTGGGTTCTAACCTGTTGCCT (site GTGTTGCCTAG)	1.59
GAGTTGCCTTGGGTTCTAACCTGTTGCGG (site GAGTAGCCTCC)	0.0344
GAGTTGCCTTGGGTTCTAACCTGTTGCGG (site GAGTCGCCTCC)	0.25
GAGTTGCCTTGGGTTCTAACCTGTTGCGG (site GAGTGGCCTCC)	0.101
GAGTTGCCTTGGGTTCTAACCTGTTGCGG (site GAGTTGCCTCC)	2.32
GAGTTTGCTTGGGTTCTAACCTGTTGCCT (site GAGTTTGCTAG)	0.572
GAGTTTGCTTGGGTTCTAACCTGTTGCCT (site GCGTTTGCTAG)	0.0311
GAGTTTGCTTGGGTTCTAACCTGTTGCCT (site GGGTTTGCTAG)	0.124
GAGTTTGCTTGGGTTCTAACCTGTTGCCT (site GTGTTTGCTAG)	0.0382
GATACGGCTTGGGTTCTAACCTGTTGCCT (site GATACGACTAG)	0.169
GATACGGCTTGGGTTCTAACCTGTTGCCT (site GATACGCCTAG)	0
